Test system: Staphylococcus species
Assay: Effect of age of the dimer solution on MIC (stability of the solution)
Assay type: physicochemical
Details: stored at RT in foil wrapped tube
Source text: The dimer solution was two weeks old at this time. When the additional Staph strains were then retested using a freshly made solution of the dimer, the MICs were lower (see Table E). The stability of the solution stored at RT in a foil wrapped tube could be a variable contributing to the discrepancy between MICs.

10,10'-bis(3,6-dimethyl-5,10-dihydro-1,8-diazaanthracen-5-one) and 5,5'-bis(3,6-dimethyl-5,10-dihydro-1,8-diazaanthracen-10-one) [Example 15]
MICs with two weeks old dimer solution vs. original screen: MICs appeared to be significantly higher

— patent US5994365A, “Substituted diazaanthracene compounds having pharmaceutical utility” (Diazans Limited, priority 1998, dated 1999)
